Consider 30 molecules from US20230329236A1, “HERBICIDAL PYRIMIDINE DERIVATIVES” (MoA Technology Limited, priority 2020, published 2023).

What all share (conditions): 336 h, Table 3, post-emergence, 14±1 days post application
One assay deals with Veronica persica (VERPE). Kind of assay: Post-emergence glasshouse test, visual injury, VERPE. Format: in vivo. As for the experimental part:
(§1) Seeds of a variety of test species are grown in a sandy loam soil mixture, Lolium multiflorum (LOLMU), Amaranthus retroflexus (AMARE), Echinochloa crus-gaffi (ECHCG), Veronica persica (VERPE), Glycine max (GLXMA), Oryza sativa (ORYSA), Zea mays (ZEAMX), spring wheat (TRZAS), Ipomoea hederacea (IPOHE), Ipomoea purpurea (PHBPU), Stellaria media (STEME), Solanum nigrum (SOLNI), Digitaria sanguinalis (DIGSA), Setaria italica (SETIT), Alopecurus myosuroides (ALOMY) and Avena fatua (AVEFA).
(§2) After sowing, at growth stage BBCH 12-14 (post-emergence), the plants are sprayed with an aqueous spray solution derived from the formulation of the technical active ingredient in acetone/water (50:50) solution containing 0.5% Tween 20 (polyoxyethlyene sorbitan monolaureate, CAS RN 9005-64-5). The test compounds are applied at the required concentration of active ingredient in g/ha. The test plants are then grown in a glasshouse under controlled environmental conditions and watered regularly as required. After 14±1 days post application (for post-emergence test), the test is evaluated by assessing the percentage damage caused to the plants in comparison with the untreated plots. The biological activities for post-emergence testing are shown below (Table 3 and Table 4) as a % visual injury.

Assay [1] has as its system Lolium multiflorum (LOLMU). Kind of assay: Post-emergence glasshouse test, visual injury, LOLMU. Format: in vivo. As for the experimental part: as §1, §2
Assay [2] deals with Amaranthus retroflexus (AMARE). Description: Post-emergence glasshouse test, visual injury, AMARE. Format: in vivo. Here is the method: as §1, §2
Assay [3] concerns Echinochloa crus-gaffi (ECHCG). Description: Post-emergence glasshouse test, visual injury, ECHCG. The assay is classed as in vivo, Echinochloa crus-galli. Here is the method: as §1, §2

The term pest or weed control denotes the degree to which the test organism was suppressed or injured, in per cent. Low values mean weak suppression, high ones strong suppression. Turning to `Cc1cc(-c2cnc(NCc3ccccc3)nc2C(C)C)on1` [Compound 94], the pest or weed control at 62 g/ha with Veronica persica (VERPE) turned out to be 0%; in assay [1] it was 10%; in assay [2] it was 60%; in assay [3] it was 80%.
In the case of `Cc1cc(-c2cnc(NC3CC3)nc2C(F)(F)F)on1` [Compound 114], the pest or weed control at 125 g/ha with Veronica persica (VERPE) was 70%; in assay [1], 0%; in assay [2], 0%; in assay [3], 20%.
Turning to `COc1ccc(CCNc2ncc(-c3cc(C)no3)c(C3CC3)n2)cc1OC` [Compound 78], the pest or weed control at 500 g/ha in the assay with Veronica persica (VERPE) came out at 99%; in assay [1], 40%; in assay [2] it was 95%; in assay [3] it was 80%.
In the case of `Cc1cc(-c2cnc(NCc3cccnc3)nc2C(C)C)on1` [Compound 28], the pest or weed control at 500 g/ha came to 98% in the assay with Veronica persica (VERPE), 0% in assay [1], 90% in assay [2] and 70% in assay [3].
Taken in the same sequence, the figures for `C=COCCCNc1ncc(-c2cc(C)no2)c(C(C)C)n1` [Compound 35] were 98%, 0%, 0% and 60%.
With `Cc1cc(-c2cnc(NCc3cccc(F)c3)nc2C2CC2)on1` [Compound 85], the pest or weed control at 125 g/ha with Veronica persica (VERPE) is 50%; in assay [1], 30%; in assay [2] it was 95%; in assay [3], 80%. Also, the pest or weed control at 250 g/ha in the assay with Veronica persica (VERPE) worked out at 100%; in assay [1] it was 40%; in assay [2], 100%; in assay [3], 100%.
Take `Cc1cc(-c2cnc(N3CCC(C(N)=O)CC3)nc2-c2ccc(C)o2)on1` [Compound 19]: the pest or weed control at 1000 g/ha with Veronica persica (VERPE) came out at 0%; in assay [1] it was 0%; in assay [2], 70%; in assay [3], 20%.
With `Cc1cc(-c2cnc(N3CCC(O)CC3)nc2C2CC2)on1` [Compound 71], the pest or weed control at 500 g/ha with Veronica persica (VERPE) was 40%; in assay [1], 0%; in assay [2] it was 90%; in assay [3], 60%.
Turning to `Cc1cc(-c2cnc(NCc3ccncc3)nc2C(C)C)on1` [Compound 18], the pest or weed control at 1000 g/ha with Veronica persica (VERPE) stood at 99%; in assay [1] it was 60%; in assay [2] it was 90%; in assay [3], 30%.
Regarding `COc1ccc(CCNc2ncc(-c3cc(C)no3)c(C(C)C)n2)cc1OC` [Compound 34], the pest or weed control at 500 g/ha was determined as 100% in the assay with Veronica persica (VERPE), 30% in assay [1], 70% in assay [2] and 80% in assay [3].
As for `CCOCCCNc1ncc(-c2cc(C)no2)c(C(C)(C)C)n1` [Compound 40], the pest or weed control at 500 g/ha worked out at 0% with Veronica persica (VERPE), 0% in assay [1], 70% in assay [2] and 30% in assay [3].
Turning to `Cc1cc(-c2cnc(N3CCCCC3)nc2-c2ccc(C)o2)on1` [Compound 79], the pest or weed control at 500 g/ha is 0% with Veronica persica (VERPE), 30% in assay [1], 90% in assay [2] and 60% in assay [3].
Regarding `Cc1cc(-c2cnc(NCc3ccc(F)cc3)nc2C2CCC2)on1` [Compound 105], the pest or weed control at 125 g/ha with Veronica persica (VERPE) was found to be 50%; in assay [1] it was 0%; in assay [2], 30%; in assay [3], 0%.
For the molecule `COc1ccc(CNc2ncc(-c3onc(C)c3C)c(-c3ccco3)n2)cc1` [Compound 77], the pest or weed control at 500 g/ha in the assay with Veronica persica (VERPE) is 70%; in assay [1] it was 70%; in assay [2], 70%; in assay [3], 80%.
With `Cc1cc(-c2cnc(NC3CCc4sc(Cl)cc43)nc2C(C)C)on1` (centres unmarked) [Compound 4], the pest or weed control at 125 g/ha is 98% with Veronica persica (VERPE), 0% in assay [1], 95% in assay [2] and 50% in assay [3].
Consider `Cc1cc(-c2cnc(NCc3ccc(F)cn3)nc2C(C)C)on1` [Compound 96], for which the pest or weed control at 62 g/ha with Veronica persica (VERPE) turned out to be 50%; in assay [1], 0%; in assay [2], 50%; in assay [3], 40%.
For `COc1cc(CNc2ncc(-c3cc(C)no3)c(C(C)C)n2)cc(OC)c1` [Compound 15], the pest or weed control at 1000 g/ha was determined as 100% in the assay on Veronica persica (VERPE), 0% in assay [1], 60% in assay [2] and 30% in assay [3].
With `Cc1cc(-c2cnc(NC(C)C)nc2-c2ccc(C)o2)on1` [Compound 51], the pest or weed control at 500 g/ha was 0% in the assay with Veronica persica (VERPE), 0% in assay [1], 0% in assay [2] and 70% in assay [3].
Turning to `Cc1cc(-c2cnc(N3CCC(O)C(C)C3)nc2C2CC2)on1` (centres unmarked) [Compound 60], the pest or weed control at 500 g/ha worked out at 60% in the assay with Veronica persica (VERPE), 70% in assay [1], 60% in assay [2] and 30% in assay [3].
As to `Cc1cc(-c2cnc(NCC3CCCCC3)nc2C(C)C)on1` [Compound 108], the pest or weed control at 125 g/ha with Veronica persica (VERPE) was determined as 50%; in assay [1], 0%; in assay [2], 50%; in assay [3], 20%.
Take `Cc1cc(-c2cnc(NC3CCCCC3)nc2C(C)C)on1` [Compound 7]: the pest or weed control at 125 g/ha in the assay on Veronica persica (VERPE) was 60%; in assay [1], 20%; in assay [2] it was 80%; in assay [3], 80%. Moreover, the pest or weed control at 250 g/ha in the assay with Veronica persica (VERPE) was found to be 100%; in assay [1], 20%; in assay [2] it was 100%; in assay [3] it was 100%.
Take `Cc1cc(-c2cnc(N3CCC(C(N)=O)CC3)nc2C2CC2)on1` [Compound 64]: the pest or weed control at 500 g/ha came to 0% in the assay with Veronica persica (VERPE), 30% in assay [1], 60% in assay [2] and 60% in assay [3].
On to `Cc1cc(-c2cnc(N3CCC(C(N)=O)CC3)nc2C(C)C)on1` [Compound 69], for which the pest or weed control at 500 g/ha in the assay on Veronica persica (VERPE) was determined as 60%; in assay [1] it was 0%; in assay [2], 50%; in assay [3], 0%.
On to `Cc1cc(-c2cnc(NC(C)C)nc2C(C)(C)C)on1` [Compound 73], for which the pest or weed control at 500 g/ha is 0% in the assay on Veronica persica (VERPE), 40% in assay [1], 70% in assay [2] and 70% in assay [3].
Consider `Cc1cc(-c2cnc(N3CCCC3)nc2C(C)C)on1` [Compound 29], for which the pest or weed control at 500 g/ha in the assay with Veronica persica (VERPE) is 50%; in assay [1], 0%; in assay [2], 0%; in assay [3], 50%.
Regarding `CCN1CCN(c2ncc(-c3cc(C)no3)c(C(C)C)n2)CC1` [Compound 63], the pest or weed control at 500 g/ha came out at 0% with Veronica persica (VERPE), 30% in assay [1], 70% in assay [2] and 50% in assay [3].
Regarding `Cc1ncc(-c2cnc(NC3CCCC3)nc2C(C)C)s1` [Compound 123], the pest or weed control at 62 g/ha in the assay on Veronica persica (VERPE) came out at 50%; in assay [1], 0%; in assay [2], 0%; in assay [3], 0%.
As to `Cc1cc(-c2cnc(N3CCN(c4ncccn4)CC3)nc2-c2ccc(C)o2)on1` [Compound 89], the pest or weed control at 125 g/ha amounted to 5% in the assay with Veronica persica (VERPE), 5% in assay [1], 0% in assay [2] and 0% in assay [3].
As to `Cc1cc(-c2cnc(NCc3ccc(F)cc3)nc2C(C)(C)C)on1` [Compound 47], the pest or weed control at 500 g/ha in the assay on Veronica persica (VERPE) amounted to 80%; in assay [1], 0%; in assay [2], 40%; in assay [3], 50%.
As for `Cc1cc(-c2cnc(NC3CCCC3)nc2C2CCC2)on1` [Compound 104], the pest or weed control at 125 g/ha was determined as 60% in the assay on Veronica persica (VERPE), 0% in assay [1], 40% in assay [2] and 0% in assay [3].
